Patent publication US8889711B2, “Pyrazolopyridine derivatives as anticancer agent” (Pierre Fabre Medicament, priority 2009, dated 2014)
pIC50: −log10 of the molar value.

What was measured:
[1] = tested on: karpas 299 cells; test: Measurement of inhibition of cell proliferation (Karpas), ATPlite; assay type: cell-based
Summary of the method: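 Karpas 299 cells seeded at 300 000 cells/ml, treated on Day 1 and incubated at 37° C under 5% CO2 for 72 h. Viability measured on Day 4 by ATPlite luminescence of ATP from viable cells. IC50 derived by non-linear sigmoid dose-response regression with variable Hill slope.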

[2] = target: ALK kinase (Homo sapiens, UniProt Q9UM73); test: Test to measure ALK kinase inhibition (GST-PLCγ1 substrate, anti-phosphotyrosine ELISA, luminescence); assay type: biochemical; conditions: ALK kinase 180 ng/ml, 250 μM ATP, 30 minutes at 30° C.
Summary of the method: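 GST-PLCγ1 substrate-coated plate; ALK at 180 ng/ml in Tris pH 7.5 buffer with MgCl2, DTT, β-glycerophosphate, orthovanadate and 250 μM ATP, 30 min at 30 °C, inhibitor typically 30 μM to 10 nM. Phosphotyrosine detected with HRP anti-phosphotyrosine antibody, luminescence read-out.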

Sequence of ALK kinase (Q9UM73 19-1620): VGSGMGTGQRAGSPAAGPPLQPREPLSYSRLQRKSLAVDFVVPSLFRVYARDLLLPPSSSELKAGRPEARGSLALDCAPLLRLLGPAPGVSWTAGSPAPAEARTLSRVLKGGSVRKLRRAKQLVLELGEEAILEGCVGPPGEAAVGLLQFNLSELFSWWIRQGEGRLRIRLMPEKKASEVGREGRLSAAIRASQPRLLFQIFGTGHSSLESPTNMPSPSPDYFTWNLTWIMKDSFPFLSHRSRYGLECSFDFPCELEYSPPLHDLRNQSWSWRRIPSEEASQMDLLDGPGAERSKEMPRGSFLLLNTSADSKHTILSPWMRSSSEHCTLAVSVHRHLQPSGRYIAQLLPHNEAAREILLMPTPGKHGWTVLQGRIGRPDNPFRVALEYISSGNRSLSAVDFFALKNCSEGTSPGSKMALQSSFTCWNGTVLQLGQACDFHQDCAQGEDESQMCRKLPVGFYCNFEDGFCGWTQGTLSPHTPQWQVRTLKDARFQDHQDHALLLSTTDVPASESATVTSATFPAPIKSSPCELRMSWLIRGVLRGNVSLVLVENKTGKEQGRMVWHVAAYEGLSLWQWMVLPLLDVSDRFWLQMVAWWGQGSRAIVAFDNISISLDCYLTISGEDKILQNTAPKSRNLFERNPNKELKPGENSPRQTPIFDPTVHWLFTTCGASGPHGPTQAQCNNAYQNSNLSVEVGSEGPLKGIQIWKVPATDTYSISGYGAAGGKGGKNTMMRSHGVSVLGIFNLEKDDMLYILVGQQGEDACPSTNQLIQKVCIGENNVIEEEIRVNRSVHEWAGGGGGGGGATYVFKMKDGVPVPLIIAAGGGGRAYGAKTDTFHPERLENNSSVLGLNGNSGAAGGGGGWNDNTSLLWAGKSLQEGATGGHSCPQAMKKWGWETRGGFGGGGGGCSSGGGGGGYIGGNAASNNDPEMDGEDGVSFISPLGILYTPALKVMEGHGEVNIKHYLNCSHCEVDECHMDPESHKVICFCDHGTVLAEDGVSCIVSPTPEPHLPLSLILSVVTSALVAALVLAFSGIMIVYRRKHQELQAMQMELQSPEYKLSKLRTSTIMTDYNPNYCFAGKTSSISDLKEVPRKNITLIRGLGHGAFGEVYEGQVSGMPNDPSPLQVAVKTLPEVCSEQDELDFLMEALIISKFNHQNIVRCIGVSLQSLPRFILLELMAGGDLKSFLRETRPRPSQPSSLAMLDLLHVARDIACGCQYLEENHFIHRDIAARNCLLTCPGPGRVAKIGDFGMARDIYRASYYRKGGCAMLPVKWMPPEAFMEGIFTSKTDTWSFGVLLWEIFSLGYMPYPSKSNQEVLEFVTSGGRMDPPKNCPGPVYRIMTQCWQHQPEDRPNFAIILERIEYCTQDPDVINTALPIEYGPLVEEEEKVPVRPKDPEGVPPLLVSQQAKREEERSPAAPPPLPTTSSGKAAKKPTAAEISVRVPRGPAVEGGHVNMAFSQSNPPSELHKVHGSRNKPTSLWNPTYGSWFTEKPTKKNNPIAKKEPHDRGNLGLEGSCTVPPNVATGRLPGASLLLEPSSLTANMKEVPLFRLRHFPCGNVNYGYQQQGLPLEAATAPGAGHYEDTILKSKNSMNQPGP

| SMILES | pIC50 ([1]; Homo sapiens, KARPAS-299, 72 h) | pIC50 [2] | pIC50 ([1]; 72 hours) |
| --- | --- | --- | --- |
| N#Cc1c(-c2cc3cc[nH]c3cc2F)nc2[nH]nc(N)c2c1-c1ccc(N2CCNCC2)cc1 [Compound 233] | < 5.00 | 6.00 to 7.00 | – |
| Cc1n[nH]c2nc(-c3cc4cc[nH]c4cc3F)c(C#N)c(-c3ccc(N4CCNCC4)cc3)c12 [Compound 234] | 5.00 to 6.00 | 6.00 to 7.00 | – |
| N#Cc1c(-c2ccc(O)cc2F)nc2[nH]nc(-c3ccc([N+](=O)[O-])cc3)c2c1-c1ccc(N2CCNCC2)cc1 [Compound 235] | 5.00 to 6.00 | 6.00 to 7.00 | – |
| N#Cc1c(-c2ccc(O)cc2F)nc2[nH]nc(-c3ccc(-c4ccccc4)cc3)c2c1-c1ccc(N2CCNCC2)cc1 [Compound 236] | 6.00 to 7.00 | > 7.00 | – |
| Cc1n[nH]c2nc(-c3ccc(O)cc3F)c(S(C)(=O)=O)c(-c3ccc(N4CCNCC4)cc3)c12 [Compound 238] | 5.00 to 6.00 | 6.00 to 7.00 | – |
| Cc1n[nH]c2nc(-c3ccc(OC(=O)c4ccccc4)cc3F)c(C#N)c(-c3ccc(N4CCNCC4)cc3)c12 [Compound 239] | 6.00 to 7.00 | 6.00 to 7.00 | – |
| N#Cc1c(-c2c(F)ccc(F)c2F)nc2[nH]nc(-c3ccco3)c2c1-c1ccc(N2CCNCC2)cc1 [Compound 242] | 5.00 to 6.00 | 6.00 to 7.00 | – |
| N#Cc1c(-c2ccc(O)cc2F)nc2[nH]nc(-c3ccc(C(F)(F)F)cc3)c2c1-c1ccc(N2CCNCC2)cc1 [Compound 244] | 6.00 to 7.00 | > 7.00 | – |
| CCOC(=O)c1c(-c2c(F)ccc(F)c2F)nc2[nH]nc(-c3cccs3)c2c1-c1ccc(N2CCNCC2)cc1 [Compound 245] | 5.00 to 6.00 | 6.00 to 7.00 | – |
| N#Cc1c(-c2cccc(O)c2)nc2[nH]nc(-c3cccs3)c2c1-c1ccc(N2CCNCC2)cc1 [Compound 247] | – | 6.00 to 7.00 | 5.00 to 6.00 |
| Cc1c(C#N)c(-c2c(F)ccc(F)c2F)nc2[nH]nc(-c3ccc(N4CCNCC4)cc3)c12 [Compound 248] | 5.00 to 6.00 | 5.00 to 6.00 | – |
| Cc1cc(-c2nc3[nH]nc(-c4ccco4)c3c(-c3ccc(N4CCNCC4)cc3)c2C#N)ccc1O [Compound 251] | 6.00 to 7.00 | > 7.00 | – |
| CCOC(=O)c1c(-c2c(F)ccc(F)c2F)nc2[nH]nc(C)c2c1-c1ccc(N2CCNCC2)cc1 [Compound 252] | 5.00 to 6.00 | 6.00 to 7.00 | – |
| Cc1n[nH]c2nc(-c3c(F)ccc(F)c3F)c(C#N)c(-c3ccc(N4CCC(N)CC4)o3)c12 [Compound 253] | 5.00 to 6.00 | 6.00 to 7.00 | – |
| Cc1n[nH]c2nc(-c3ccc(O)cc3Cl)c(C#N)c(-c3ccc(N4CCNCC4)cc3)c12 [Compound 254] | 5.00 to 6.00 | 6.00 to 7.00 | – |
| N#Cc1c(-c2c(F)ccc(F)c2F)nc2[nH]nc(-c3ccco3)c2c1-c1ccc(N2CCOCC2)o1 [Compound 255] | 5.00 to 6.00 | 5.00 to 6.00 | – |
| N#Cc1c(-c2ccc(O)cc2Cl)nc2[nH]nc(-c3ccc(N4CCOCC4)cc3)c2c1-c1ccc(N2CCNCC2)cc1 [Compound 256] | 5.00 to 6.00 | > 7.00 | – |
| Cc1n[nH]c2nc(-c3ccc(O)cc3F)c(C#N)cc12 [Compound 260] | 5.00 to 6.00 | 6.00 to 7.00 | – |
| Cc1n[nH]c2nc(-c3ccc(O)cc3F)c(C#N)c(-c3ccc(-c4ccc(S(N)(=O)=O)cc4)o3)c12 [Compound 270] | < 5.00 | 6.00 to 7.00 | – |
| N#Cc1c(-c2ccc(O)cc2F)nc2[nH]nc(N)c2c1-c1ccc(-c2ccc(S(N)(=O)=O)cc2)o1 [Compound 271] | < 5.00 | 6.00 to 7.00 | – |
| N#Cc1c(-c2ccoc2)nc2[nH]nc(-c3ccco3)c2c1-c1ccc(N2CCNCC2)cc1 [Compound 272] | 5.00 to 6.00 | 5.00 to 6.00 | – |
| Cc1n[nH]c2nc(-c3ccc(O)cc3)c(C#N)c(-c3ccc(-c4ccc(N)cc4)o3)c12 [Compound 273] | < 5.00 | 6.00 to 7.00 | – |
| CN(C)CC#Cc1ccc(-c2c(C#N)c(-c3ccc(O)cc3)nc3[nH]ncc23)o1 [Compound 274] | 5.00 to 6.00 | 5.00 to 6.00 | – |
| Cc1n[nH]c2nc(-c3ccc(O)cc3)c(C#N)c(-c3ccc(-c4ccc(S(N)(=O)=O)cc4)o3)c12 [Compound 275] | < 5.00 | 6.00 to 7.00 | – |
| N#Cc1c(-c2cscn2)nc2[nH]nc(-c3cccs3)c2c1-c1ccc(N2CCNCC2)cc1 [Compound 276] | 5.00 to 6.00 | < 5.00 | – |

| SMILES | pIC50 ([1]; Homo sapiens, KARPAS-299, 72 h) | pIC50 [2] | pIC50 ([1]; 72 hours) |
| --- | --- | --- | --- |
| Cc1n[nH]c2nc(-c3ccc(O)c(F)c3F)c(C#N)c(-c3ccc(N4CCNCC4)cc3)c12 [Compound 277] | < 5.00 | 6.00 to 7.00 | – |
| Cc1cc(-c2nc3[nH]nc(-c4cccs4)c3c(-c3ccc(N4CCNCC4)cc3)c2C#N)c(F)cc1O [Compound 278] | 6.00 to 7.00 | > 7.00 | – |
| N#Cc1c(-c2cnn[nH]2)nc2[nH]nc(-c3cccs3)c2c1-c1ccc(N2CCNCC2)cc1 [Compound 279] | < 5.00 | 5.00 to 6.00 | – |
| N#Cc1c(-c2cncs2)nc2[nH]nc(-c3cccs3)c2c1-c1ccc(N2CCNCC2)cc1 [Compound 280] | 5.00 to 6.00 | 5.00 to 6.00 | – |
| N#Cc1c(-c2cscn2)nc2[nH]nc(-c3ccc(N4CCOCC4)cc3)c2c1-c1ccc(N2CCNCC2)cc1 [Compound 281] | 5.00 to 6.00 | 5.00 to 6.00 | – |
| N#Cc1c(-c2ccnc(O)c2)nc2[nH]nc(-c3cccs3)c2c1-c1ccc(N2CCNCC2)cc1 [Compound 282] | < 5.00 | 5.00 to 6.00 | – |
| Cc1cc(-c2nc3[nH]nc(-c4cccs4)c3c(-c3ccc(N4CCNCC4)cc3)c2C#N)cc(C)c1O [Compound 283] | 5.00 to 6.00 | 6.00 to 7.00 | – |
| COC(=O)c1c(-c2ccc(O)cc2F)nc2[nH]nc(C)c2c1-c1ccc(N2CCNCC2)cc1 [Compound 284] | > 7.00 | > 7.00 | – |
| N#Cc1c(-c2cncs2)nc2[nH]nc(-c3ccco3)c2c1-c1ccc(N2CCNCC2)cc1 [Compound 285] | 5.00 to 6.00 | > 7.00 | – |
| Cc1cc(-c2nc3[nH]nc(C)c3c(-c3ccc(N4CCNCC4)cc3)c2C#N)c(F)cc1O [Compound 286] | 6.00 to 7.00 | > 7.00 | – |
| N#Cc1c(-c2ccc(O)cc2F)nc2[nH]ncc2c1-c1ccc(-c2ccc(S(N)(=O)=O)cc2)o1 [Compound 287] | 5.00 to 6.00 | > 7.00 | – |
| COc1ccc(-c2nc3[nH]ncc3c(-c3ccc(C#CCN)o3)c2C#N)cc1 [Compound 288] | < 5.00 | 5.00 to 6.00 | – |
| N#Cc1c(-c2ccc(O)cc2)nc2[nH]ncc2c1-c1ccc(CCCN)o1 [Compound 289] | 6.00 to 7.00 | > 7.00 | – |
| N#Cc1c(-c2ccc(CCl)cc2)nc2[nH]nc(-c3ccc(C(F)(F)F)cc3)c2c1-c1ccc(N2CCNCC2)cc1 [Compound 290] | 5.00 to 6.00 | 5.00 to 6.00 | – |
| N#Cc1c(-c2ccc(CO)cc2)nc2[nH]nc(-c3ccc(C(F)(F)F)cc3)c2c1-c1ccc(N2CCNCC2)cc1 [Compound 291] | 5.00 to 6.00 | 5.00 to 6.00 | – |
| COC(=O)c1c(-c2ccc(O)c(C)c2)nc2[nH]nc(C)c2c1-c1ccc(N2CCNCC2)cc1 [Compound 293] | > 7.00 | > 7.00 | – |
| Cc1cc(-c2nc3[nH]nc(N)c3c(-c3ccc(N4CCNCC4)cc3)c2C#N)c(F)cc1O [Compound 294] | 6.00 to 7.00 | > 7.00 | – |
| COC(=O)c1c(-c2ccc(O)cc2F)nc2[nH]nc(N)c2c1-c1ccc(N2CCNCC2)cc1 [Compound 295] | 6.00 to 7.00 | > 7.00 | – |
| CC(C)(C)C(=O)Oc1ccc(-c2nc3[nH]nc(-c4cccs4)c3c(-c3ccc(N4CCNCC4)cc3)c2C#N)c(F)c1 [Compound 296] | 6.00 to 7.00 | 6.00 to 7.00 | – |
| N#Cc1c(-c2ccc(OC(=O)c3ccccc3)cc2F)nc2[nH]nc(-c3cccs3)c2c1-c1ccc(N2CCNCC2)cc1 [Compound 297] | 6.00 to 7.00 | 6.00 to 7.00 | – |
| CC(=O)Oc1ccc(-c2nc3[nH]nc(-c4cccs4)c3c(-c3ccc(N4CCNCC4)cc3)c2C#N)c(F)c1 [Compound 298] | < 5.00 | 6.00 to 7.00 | – |
| CN(C)CCN1CCN(c2ccc(-c3c(C#N)c(-c4ccc(O)cc4)nc4[nH]nc(-c5ccc(Cl)cc5)c34)c(F)c2)CC1 [Compound 299] | 5.00 to 6.00 | > 7.00 | – |
| COC(=O)c1c(-c2ccc(OC(=O)C(C)(C)C)cc2F)nc2[nH]nc(C)c2c1-c1ccc(N2CCNCC2)cc1 [Compound 300] | > 7.00 | > 7.00 | – |
| CC(C)(C)C(=O)Oc1ccc(-c2nc3[nH]nc(N)c3c(-c3ccc(N4CCNCC4)cc3)c2C#N)c(F)c1 [Compound 301] | < 5.00 | 6.00 to 7.00 | – |
